This note sets out measurements from PMC11475482, “The 2‐oxoglutarate/malate carrier extends the family of mitochondrial carriers capable of fatty acid and 2,4‐dinitrophenol‐activated proton transport” (Acta Physiologica (Oxford, England), 2024).

The term inhibition denotes the share of the control response that was lost under treatment. As usually defined, the IC50 is the point on the concentration scale where inhibition reaches its midpoint. A high value points to a need for much substance.

What all share (assay): planar lipid bilayer proton conductance
Holding throughout (type): biochemical

Assay [1] addresses T1, mOGC (2‐oxoglutarate/malate carrier, SLC25A11) (Mus musculus, UniProt Q9CR62, R90S).
T1 construct: 34 kDa monomer, dimer (~69 kDa) on SDS-PAGE (dimer possibly artefact); tag not mentioned
T1 sequence (Q9CR62 2-314 R90S): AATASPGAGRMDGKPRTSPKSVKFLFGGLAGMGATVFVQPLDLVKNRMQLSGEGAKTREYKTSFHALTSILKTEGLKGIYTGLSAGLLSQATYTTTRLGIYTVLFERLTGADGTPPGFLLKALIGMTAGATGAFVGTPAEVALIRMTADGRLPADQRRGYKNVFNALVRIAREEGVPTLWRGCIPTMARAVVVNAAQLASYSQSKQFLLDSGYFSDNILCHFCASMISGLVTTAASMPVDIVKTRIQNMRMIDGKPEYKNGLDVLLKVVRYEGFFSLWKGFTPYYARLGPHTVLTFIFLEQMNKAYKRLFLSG

Assay [2] has as its target T2, mOGC (2‐oxoglutarate/malate carrier, SLC25A11) (Mus musculus, UniProt Q9CR62).
T2 construct: 34 kDa monomer, dimer (~69 kDa) on SDS-PAGE (dimer possibly artefact); tag not mentioned
T2 sequence (Q9CR62 2-314): T1 sequence (Q9CR62 2-314 R90S) with S89R

Assay [3] deals with T2, mOGC (2‐oxoglutarate/malate carrier, SLC25A11). As to conditions: read-out: % inhibition at 4 mM.
The target is the same in assay [4]. As to conditions: total membrane conductance with mOGC; activator (protonophore); pH 7.34, 32°C.

Numbering of substitutions follows the chain as printed.

As for `O=C(O)CCC(=O)C(=O)O` [2‐oxoglutarate], in assay [1], 2000 µM produced 19% inhibition. Also, the half-maximal inhibitory concentration (IC50) in assay [2] was 60 ± 10 µM.

With `Nc1ncnc2c1ncn2[C@@H]1O[C@H](COP(=O)(O)OP(=O)(O)OP(=O)(O)O)[C@@H](O)[C@H]1O` [ATP], the inhibition at 4000 µM in assay [3] was determined as 75%.

On to `CCCCC/C=C\C/C=C\C/C=C\C/C=C\CCCC(=O)O` [arachidonic acid], for which the “Gm at 15 mol%” value in assay [4] was determined as 92.5 ± 16.5 nS/cm^2.

`O=C(O)C[C@H](O)C(=O)O` [malate] showed an inhibition at 2000 µM in assay [1] of 74%. Half-maximal inhibition in assay [2] (IC50) was put at 100 ± 60 µM.

In assay [2], `O=C(O)CC(C(=O)O)c1ccccc1` (stereo not shown) [phenylsuccinate] showed an IC50 of 1000 ± 110 µM.
